For assay [1], the target named is His-tagged recombinant human Gal-3 (hGal-3) (Homo sapiens, UniProt P17931). Put plainly: Gal-3 HTRF assay (His-tagged hGal-3 / B-ASF). The assay is classed as binding. To be noted: 15 nM hGal-3, 15 nM B-ASF. As for the experimental part: ASSAY BUFFER Composition: 25 mM HEPES, 100 mM NaCl, 0.005% Tween 20, 0.05% BSA prepared in sterile water (all reagents from Sigma).
• Positive Control: 100% DMSO (1 μL)+His-tagged hGal-3 (20 μL)+B-ASF (20 μL)+Anti-His Terbium Antibody (5 μL)+Strep d2 Antibody (5 μL). • Negative Control: 100% DMSO (1 μL)+His-tagged hGal-3 (20 μL)+Anti His Terbium Antibody (5 μL)+Strep d2 Aantibody (5 μL). Stocks Preparation:
PROTOCOL: The Gal-3 assays were performed in 384 white Opti plates in three replicates at room temperature with gentle shaking at 250-300 rpmFrom the original stocks, […] working stock concentrations of His-tagged recombinant human Gal-3 (hGal-3) and that of B-ASF were prepared. From the working stock, 20 μL of hGal-3 (15 nM) and 20 μL B-ASF (15 nM) were added to the plates. In Negative Control, only hGal-3 was added. A concentration range of 50× working stocks were prepared for the compounds in 100% DMSO. Aliquots of luL of the compounds were added to the wells and pre-incubated with 20 μL hGal-3 per well for 30 minutes Then 20 μL B-ASF wereadded and incubated for another 1 hour. To detect the signal, 5 μL (final conc. of 1.0 nM) terbium labelled Anti-His antibody was added and incubated for 30 min followed by adding 5 μL (final conc. of 20 nM) Streptavidin d2 and incubation for another 1 hour. The assay signal was detected using HTRF screen protocol (Excitation wavelength=340 nm, emission wavelength=615 nm/665 nm) on Envision 2104 Multilabel Reader. Data analysed using Toolset and Curve Master. Results are reported in the experimental section (IC50 in μM).
(In TR-FRET formats the signal depends on donor and acceptor labels being close together.)

In assay [2] the target is T1, hCRBN (NanoLuc-CRBN fusion construct in HEK-293 cells) (Homo sapiens, UniProt Q96SW2).
T1 construct: expressed in transfected cells; host or cells: HEK-293
T1 sequence (Q96SW2 whole entry, the tested form may be a part): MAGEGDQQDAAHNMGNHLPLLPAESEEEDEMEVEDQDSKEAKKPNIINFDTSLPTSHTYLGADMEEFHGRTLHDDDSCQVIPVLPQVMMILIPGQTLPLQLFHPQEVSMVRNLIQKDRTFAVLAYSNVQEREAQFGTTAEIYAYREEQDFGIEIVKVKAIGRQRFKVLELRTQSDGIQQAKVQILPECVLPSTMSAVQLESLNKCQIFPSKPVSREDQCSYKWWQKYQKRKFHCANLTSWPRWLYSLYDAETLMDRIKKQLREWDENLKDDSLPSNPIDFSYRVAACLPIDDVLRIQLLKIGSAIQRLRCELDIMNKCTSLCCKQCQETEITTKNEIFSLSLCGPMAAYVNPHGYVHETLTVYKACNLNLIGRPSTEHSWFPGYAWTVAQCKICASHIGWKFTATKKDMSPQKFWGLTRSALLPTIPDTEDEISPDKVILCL
Put plainly: CRBN BRET Target Engagement. To be noted: NanoLuc-CRBN transfected HEK-293 cells, BRET with CRBN Probe. The assay is classed as cell-based. As for the experimental part: CRBN BRET Target Engagement (hCRBN IC50 (μM))
NanoLuc-CRBN fusion construct was transfected in HEK-293 cells using FuGENE HD (Promega) according to the manufacturer's protocol. In brief, Nluc-CRBN was diluted into Transfection Carrier DNA (Promega) 1:10 (mass/mass), to which FuGENE HD was 1:3 (μg DNA:μL FuGENE HD). One part (vol) of DNA:FuGENE HD complexes were combined with 20 parts (vol) of HEK-293 cells suspended at a density of […]. Cells were incubated for ˜20 hr at 37° C./5% CO2. Following transfection, cells were washed and resuspended at 200,000 cells/mL in OptiMEM without phenol red (Gibco).
For BRET measurements, cells were seeded in a 384-well nonbinding surface plate (Corning) plate for a final count of 10,000 cells/well. Compounds were dissolved at 10 mM in dimethylsulfoxide (DMSO) and evaluated at eleven concentrations using a high concentration of […]. CRBN Probe was used for equilibrium measurements, employing a final concentration of approximately EC50-80. For live-cell measurements, 20 nM of CRBN Probe was added. For the live-cell assay conditions, the plates were incubated for 2 hours at 37° C./5% CO2. NanoBRET NanoGlo Substrate and Extracellular Nanoluc Inhibitor (Promega) were added according to manufacturer's guidelines. For lytic cell measurements, digitonin was added to the cells to a final concentration of 50 μg/mL and 20 nM of CRBN Probe was added. To measure NanoBRET in permeabilized cells, extracellular Nluc inhibitor was omitted during the detection step. For all BRET experiments, the Envision 2015 (Perkin Elmer) equipped with a BRET2 Enh mirror, BRET 647 nM/75 nM Bandwidth and BC703 460 nM/80 nM Bandwidth filters was used for readouts. Each read was integrated for 0.5 s.
To determine compound potency (IC50), BRET ratios for each dilution series was first normalized to a % Inhibition value via Equation 1, where “S” represents Sample BRET, “B” represents Background BRET, and “T” represents Total BRET. In this equation, the background control (B) consists of NanoLuc-CRBN expressing cells and no CRBN Probe. The total BRET Ratio (T) consists of NanoLuc-CRBN expressing cells, CRBN Probe, and an amount of DMSO at a concentration equivalent to that added when testing compounds.
Following normalization, the percent inhibition values are plotted as a function of compound concentration and fit to Equation 2. […]
On the technique in general: Bioluminescence resonance energy transfer reports proximity on the nanometre scale.

Assay [3] has as its target T2, Gal3 (Human Galectin-3) in THP-1 cells (Homo sapiens, UniProt P17931).
T2 construct: host or cells: THP-1
Description: ELISA Gal3 Degradation Assay in THP-1 Cells. The assay is classed as cell-based. To be noted: 48 hours, culture media Gal3 by ELISA. As for the experimental part: [formula] ELISA Gal3 Degradation Assay in THP-1 Cells
THP-1 cells (ATCC, Cat #TIB-202), a human monocyte cell line derived from leukemia were plated at 2E6 cells/mL in 200 uL/well of RPMI 1640 (ThermoFisher, Cat #11835) in 96-well plates. Cells were treated with DMSO as a control and various concentrations of compounds for 48 hours. After the treatment, the culture media were collected. The PBS washed cell pellets were lysed in Lysis Buffer (Cell Signaling, Cat #9803) supplemented with 1XProtease Inhibitor Cocktail (Cell Signaling, Cat #5872). Gal3 levels in culture media and cell lysates were quantified by ELISA assays (Human Galectin-3 DuoSet ELISA kit, R&D Systems, Cat #DY1154) according to manufacturer's instructions. The cell culture media were also used for the assessment of cellular toxicity (LDH Assay kit, R&D Systems, DY994). The IC50 (degradation concentration at 50%) values were calculated based on the cellular Gal3 protein levels using DMSO as the control.
Background: ELISA stands for enzyme-linked immunosorbent assay.

Setting [4] is: test 1, read-out: Supernatant (IC50) test 1.
[5] abbreviates: test 2, read-out: Supernatant (IC50) test 2.

SMILES strings stand for the structures. Where two headings read alike, the source gives them in different places. Bounds are passed on as bounds.

T2 sequence (P17931 whole entry): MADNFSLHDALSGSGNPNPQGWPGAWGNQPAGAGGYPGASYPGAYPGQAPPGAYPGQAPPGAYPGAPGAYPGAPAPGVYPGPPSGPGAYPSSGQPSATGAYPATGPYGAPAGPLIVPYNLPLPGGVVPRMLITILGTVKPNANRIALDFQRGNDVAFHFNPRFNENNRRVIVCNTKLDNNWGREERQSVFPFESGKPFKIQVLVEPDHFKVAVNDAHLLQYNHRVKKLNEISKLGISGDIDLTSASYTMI
His-tagged recombinant human Gal-3 (hGal-3), sequence (P17931 whole entry): as above

By IC50 is commonly meant the point on the concentration scale where inhibition reaches its midpoint. For `Cc1nc([C@@H]2O[C@H](CO)[C@H](O)[C@H](n3cc(-c4cc(F)c(Cl)c(F)c4)nn3)[C@H]2OCC(=O)N[C@H]2C[C@@H](Oc3ccc(C(=O)Nc4ccc5c(c4)CN([C@@H]4CCC(=O)NC4=O)C5=O)nc3)C2)n(-c2cc(Cl)ccc2C(F)(F)F)n1` [Example 6, 5-(cis-3-(2-(((2S,3R,4S,5R,6R)-2-(1-(5-chloro-2-(trifluoromethyl)phenyl)-3-methyl-1H-1,2,4-triazol-5-yl)-4-(4-(4-chloro-3,5-difluorophenyl)-1H-1,2,3-triazol-1-yl)-5-hydroxy-6-(hydroxymethyl)tetrahydro-2H-pyran-3-yl)oxy)acetamido)cyclobutoxy)-N-(2-((R)-2,6-dioxopiperidin-3-yl)-1-oxoisoindolin-5-yl)picolinamide], the IC50 in assay [1] is 74 nM; in assay [2], above 50000 nM; in assay [3] (setting [4]), 39 nM; in assay [3] (setting [5]), 15 nM.

Consider `Cc1nc([C@@H]2O[C@H](CO)[C@H](O)[C@H](n3cc(-c4cc(F)c(Cl)c(F)c4)nn3)[C@H]2OCC(=O)N[C@H]2C[C@H](Oc3ccc(C(=O)Nc4ccc5c(c4)CN(C4CCC(=O)NC4=O)C5=O)nc3)C2)n(-c2cc(Cl)ccc2C(F)(F)F)n1` (stereo partly drawn) [Example 18], for which the IC50 in assay [1] is 220 nM; in assay [2] it was 110 nM; in assay [3] (setting [4]), 13 nM; in assay [3] (setting [5]), 14 nM.

`Cc1nc([C@@H]2O[C@H](CO)[C@H](O)[C@H](n3cc(-c4cc(F)c(Cl)c(F)c4)nn3)[C@H]2OCC(=O)N[C@H]2C[C@@H](Oc3ccc(C(=O)Nc4ccc5c(c4)C(=O)N(C4CCC(=O)NC4=O)C5)nc3)C2)n(-c2cc(Cl)ccc2C(F)(F)F)n1` (stereo partly drawn) [Example 23]: the IC50 in assay [1] was 42 nM; in assay [2], 70 nM; in assay [3] (setting [4]) it was 19 nM; in assay [3] (setting [5]), below 10 nM.

Turning to `Cc1nc([C@@H]2O[C@H](CO)[C@H](O)[C@H](n3cc(-c4cc(F)c(Cl)c(F)c4)nn3)[C@H]2OCC(=O)N2CC(COc3ccc(C(=O)Nc4cccc5c4CN(C4CCC(=O)NC4=O)C5=O)nc3)C2)n(-c2cc(Cl)ccc2C(F)(F)F)n1` (stereo partly drawn) [Example 32], the IC50 in assay [1] is 94 nM; in assay [2] it was 13700 nM; in assay [3] (setting [4]) it was 1250 nM; in assay [3] (setting [5]), 1580 nM.

With `Cc1nc([C@@H]2O[C@H](CO)[C@H](O)[C@H](n3cc(-c4cc(F)c(Cl)c(F)c4)nn3)[C@H]2OCC(=O)N2CC3(CC(Oc4ccc(C(=O)Nc5ccc6c(c5)CN(C5CCC(=O)NC5=O)C6=O)cc4)C3)C2)n(-c2cc(Cl)ccc2C(F)(F)F)n1` (stereo partly drawn) [Example 34], the IC50 in assay [1] is 110 nM; in assay [2], 1020 nM; in assay [3] (setting [4]), 4580 nM; in assay [3] (setting [5]), 210 nM.

As to `Cc1nc([C@@H]2O[C@H](CO)[C@H](O)[C@H](n3cc(-c4cc(F)c(Cl)c(F)c4)nn3)[C@H]2OCC(=O)N2CCC(COc3ccc(C(=O)Nc4ccc5c(c4)CN(C4CCC(=O)NC4=O)C5=O)cc3)CC2)n(-c2cc(Cl)ccc2C(F)(F)F)n1` (stereo partly drawn) [Example 27], the IC50 in assay [1] is 312 nM; in assay [2], 374 nM; in assay [3] (setting [5]), 40 nM.

On to `Cc1nc([C@@H]2O[C@H](CO)[C@H](O)[C@H](n3cc(-c4cc(F)c(Cl)c(F)c4)nn3)[C@H]2OCC(=O)N2CCC(Oc3ccc(C(=O)Nc4ccc5c(c4)CN(C4CCC(=O)NC4=O)C5=O)cc3)CC2)n(-c2cc(Cl)ccc2C(F)(F)F)n1` (stereo partly drawn) [Example 31], for which the 50% inhibitory concentration (IC50) came to 139 nM in assay [1], 447 nM in assay [2], 50 nM in assay [3] (setting [4]) and 14 nM in assay [3] (setting [5]).

As for `Cc1nc([C@@H]2O[C@H](CO)[C@H](O)[C@H](n3cc(-c4cc(F)c(Cl)c(F)c4)nn3)[C@H]2OCC(=O)N2CC(COc3ccc(C(=O)Nc4cccc5c4CN(C4CCC(=O)NC4=O)C5=O)cc3)C2)n(-c2cc(Cl)ccc2C(F)(F)F)n1` (stereo partly drawn) [Example 30], the IC50 in assay [1] came out at 86 nM; in assay [2], 10600 nM; in assay [3] (setting [4]) it was 854 nM; in assay [3] (setting [5]), 50 nM.

For `Cc1nc([C@@H]2O[C@H](CO)[C@H](O)[C@H](n3cc(-c4cc(F)c(Cl)c(F)c4)nn3)[C@H]2OCC(=O)N2CC3(CC(COc4ccc(C(=O)Nc5ccc6c(c5)CN(C5CCC(=O)NC5=O)C6=O)cc4)C3)C2)n(-c2cc(Cl)ccc2C(F)(F)F)n1` (stereo partly drawn) [Example 29], the IC50 in assay [1] is 160 nM; in assay [2] it was 350 nM.

For the compound `Cc1nc([C@@H]2O[C@H](CO)[C@H](O)[C@H](n3cc(-c4cc(F)c(Cl)c(F)c4)nn3)[C@H]2OCC(=O)NCCOCCOCCNC(=O)c2ccc3c(c2)C(=O)N(C2CCC(=O)NC2=O)C3=O)n(-c2cc(Cl)ccc2C(F)(F)F)n1` (stereo partly drawn) [Example 14], the values for the IC50 in assay [1] and in assay [2] were 25 nM and 1500 nM, respectively.

In the case of `Cc1nc([C@@H]2O[C@H](CO)[C@H](O)[C@H](n3cc(-c4cc(F)c(Cl)c(F)c4)nn3)[C@H]2OCC(=O)N[C@H]2C[C@H](Oc3ccc(C(=O)Nc4ccc5c(c4)CN(C4CCC(=O)NC4=O)C5=O)cc3)C2)n(-c2cc(Cl)ccc2C(F)(F)F)n1` (stereo partly drawn) [Example 15], the IC50 is 420 nM in assay [1] and 380 nM in assay [2].

For the compound `Cc1nc([C@@H]2O[C@H](CO)[C@H](O)[C@H](n3cc(-c4cc(F)c(Cl)c(F)c4)nn3)[C@H]2OCC(=O)N2CC(COc3ccc(C(=O)Nc4ccc5c(c4)CN(C4CCC(=O)N(C)C4=O)C5=O)cc3)C2)n(-c2cc(Cl)ccc2C(F)(F)F)n1` (stereo partly drawn) [Example 9, 4-((1-(2-(((2S,3R,4S,5R,6R)-2-(1-(5-Chloro-2-(trifluoromethyl)phenyl)-3-methyl-1H-1,2,4-triazol-5-yl)-4-(4-(4-chloro-3,5-difluorophenyl)-1H-1,2,3-triazol-1-yl)-5-hydroxy-6-(hydroxymethyl)tetrahydro-2H-pyran-3-yl)oxy)acetyl)azetidin-3-yl)methoxy)-N-(2-(1-methyl-2,6-dioxopiperidin-3-yl)-1-oxoisoindolin-5-yl)benzamide], the figures for the IC50 in assay [1] and in assay [2] were 85 nM and 8950 nM, respectively.

The values above are taken from patent US12291522B2, “Galectin-3 inhibitors” (BRISTOL-MYERS SQUIBB COMPANY, priority 2020, dated 2025).
